According to patent publication US6916797B2, “α-arylethylpiperazine derivatives as neurokinin antagonists” (UCB, S.A., priority 2000, dated 2005):

Tests used:
[1] = test system: verapamil binding site of the L-type calcium channel; test: Inhibition of [3H]D888 binding to the verapamil binding site of the L-type calcium channel (rat cerebral cortex membranes); details: 10 μmol/l of test substance
Protocol: 200-250 g male Sprague-Dawley rats are sacrificed by decapitation. Cerebral cortices are quickly dissected on ice and homogenized in a 20 mmol/l Tris-HCl (pH 7.4) buffer containing 250 mmol/l sucrose (buffer A). The homogenate is centrifuged at 30,000 g for 15 min at 4° C. The resulting crude membrane pellet is resuspended in a 50 mmol/l Tris-HCl (pH 7.4) buffer and incubated 15 min at 37° C. before being centrifuged at 30,000×g for 15 min at 4° C. After two more washes under the same conditions, the final pellet is resuspended in buffer A at a protein concentration ranging from 15 to 25 mg/ml and stored in liquid nitrogen.
Binding experiments are essentially performed according to Reynolds J. et al., J. Pharmacol. Exp. Ther. (1986), 237, 731-738. (1986) with slight modifications.
Membranes (120-175 μg/assay) are incubated at 25° C. for 60 min in 0.5 ml of a 50 mmol/l Tris-HCl buffer (pH 7.4) containing 2 mmol/l MgCl2, 0.2 to 0.4×10-9 mol/l of [^3H]D888 (85 Ci/mmol; Amersham, Belgium) and 10 μmol/l of the test substance. The non specific binding (NSB) is defined as the residual binding observed in the presence 10 μM verapamil. Membrane-bound and -free radioligands are separated by rapid filtration through glass fiber filters (equivalent to Whatman GF/C or GF/B; VEL, Belgium) presoaked in 0.1% polyethyleneimine to reduce non specific binding. Samples and filters are rinsed by at least 6 ml of 50 mmol/l Tris-HCl (pH 7.4) buffer. […] The radioactivity trapped onto the filters is counted by liquid scintillation in a β-counter.
The inhibition of the radioligand specific binding is calculated as follows: [formula] • where BI and Bo represent the binding observed in the presence and absence of the test substance respectively; and • BNS is the non specific binding.
Data analysis is performed by a computerized non linear curve fitting method using a set of equations describing several binding models assuming competitive interactions between ligands (Weiland G. A. and P. B. Molinoff Life Science (1981), 29, 313-330; Molinoff P. et al. (1981) Life Sci., 29, 427-443).

NK1 receptors = NK1 receptors (Homo sapiens, UniProt P25103); test: Binding of [4,5-3H-Leu10] substance P to human recombinant NK1 receptors expressed in CHO cell membranes; parameters: host or cells: CHO cells; details: pIC50 = -log IC50, concentration inhibiting by 50% the specific binding of [4,5-3H] substance P; tested as the free base/salt given in c1
Protocol: The following test was designed to assess the affinity of test substances for human recombinant NK1 receptors expressed in Chinese Hamster Ovarian (CHO) cells.
CHO cells expressing the human recombinant NK1 receptor are used. The cells were obtained from Euroscreen (Brussels, Belgium).
Cells expressing the human NK1 receptor are routinely cultured in 175 cm2 flasks containing 75 ml of medium F12 (Ham) enriched with 2 mmol/l L-glutamine, 100 IU/ml penicilline, 100 μg/ml streptomycine, 1% sodium pyruvate, 2.5 μg/ml fungizone amphotericin B, 400 μg/ml geneticin and supplemented with 10% foetal calf serum. […] When subcultured, the cells are seeded at a concentration of 50,000 cells/cm2.
Confluent cells are gently scraped and resuspended in 25 ml of phosphate buffered saline without calcium and magnesium. The cellular suspension is centrifuged at 1500×g for 3 min (4° C.). The cell pellet is homogenized in a 15 mmol/l Tris-HCl (pH 7.5) buffer, 2 mmol/l MgCl2, 0.3 mmol/l EDTA, 1 mmol/l EGTA. The crude membrane fraction is collected by two consecutive centrifugation steps at 40,000×g for 25 min (4° C.). The final pellet is resuspended in 20 mmol/l Tris-HCl (pH 7.4), 250 mmol/l sucrose buffer at a protein concentration ranging from 2 to 6 mg/ml and stored in liquid nitrogen. • 1.2.2. Test Design
The inhibition constant (Ki) is determined using increasing concentrations of the test substance. The concentration range usually encompasses 6 log units with variable steps (0.3 to 1 log). Assays are performed in mono- or duplicate.
Membranes are incubated at 25° C. for 60 min in 0.5 ml of a 50 mmol/l Tris-HCl buffer (pH 7.4) containing 2 mmol/l MgCl2, 100 μg/ml bacitracine, 0.1 to 0.4×10^−9 mol/l of [4,5^3H-Leu^10] substance P (specific activity>100 Ci/mmol) and increasing concentrations of the test substance. […] Membrane-bound and free radioligands are separated by rapid filtration through glass fiber filters (equivalent to Whatman GF/C or GF/B; VEL, Belgium) presoaked in 0.1% polyethyleneimine to reduce non specific binding. Samples and filters are rinsed by at least 6 ml of 50 mmol/l Tris-HCl (pH 7.4) buffer.
Initial values for the different variables may be provided by the experimenter.

NK1 receptors, sequence (P25103 whole entry): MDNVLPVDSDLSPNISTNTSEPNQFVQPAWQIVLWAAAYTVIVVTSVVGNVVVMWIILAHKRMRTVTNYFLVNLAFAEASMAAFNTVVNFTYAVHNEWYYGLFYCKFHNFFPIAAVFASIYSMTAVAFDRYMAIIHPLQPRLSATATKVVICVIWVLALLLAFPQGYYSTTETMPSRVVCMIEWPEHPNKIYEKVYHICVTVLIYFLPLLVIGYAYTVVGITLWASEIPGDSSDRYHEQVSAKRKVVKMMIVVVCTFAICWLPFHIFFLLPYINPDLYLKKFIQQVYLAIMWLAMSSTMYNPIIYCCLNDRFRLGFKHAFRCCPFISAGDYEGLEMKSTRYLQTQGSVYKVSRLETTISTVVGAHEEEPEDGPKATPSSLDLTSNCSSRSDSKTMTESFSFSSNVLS

SMILES	% inhibition of [3H]D888 binding to the verapamil binding site of the L-type calcium channel [1]	IC50 (NK1 receptors) [nM]
CC(OCC(c1ccccc1)N1CCN(CC(=O)O)CC1)c1cc(C(F)(F)F)cc(C(F)(F)F)c1 (single isomer, unassigned) [Compound 274]	0 (0: inhibition < 20%)	12.6
O=C(COCCN1CCN(C(COCc2cc(C(F)(F)F)cc(C(F)(F)F)c2)c2ccccc2)CC1)NS(=O)(=O)c1ccccc1 (stereo not shown) [Compound 306, N-[(2-{4-[2-(3,5-Bis-trifluoromethyl-benzyloxy)-1-phenyl-ethyl]-piperazin-1-yl}-ethoxy)-acetyl]-benzenesulfonamide]	+ (+: inhibition comprised between 20 and 50%)	31.6
CS(=O)(=O)NC(=O)COCCN1CCN(C(COCc2cc(C(F)(F)F)cc(C(F)(F)F)c2)c2ccccc2)CC1 (stereo not shown) [Compound 305, N-[(2-{4-[2-(3,5-Bis-trifluoromethyl-benzyloxy)-1-phenyl-ethyl]-piperazin-1-yl}-ethoxy)-acetyl]-methanesulfonamide]	0 (0: inhibition < 20%)	79.4
Cc1ccc(S(=O)(=O)NC(=O)OCCN2CCN(C(COCc3cc(C(F)(F)F)cc(C(F)(F)F)c3)c3ccccc3)CC2)cc1 (stereo not shown) [Compound 307, N-p-toluenesulfonic-carbamic acid 2-{4-[2-(3,5-bis-trifluoromethyl-benzyloxy)-1-phenyl-ethyl]-piperazin-1-yl}-ethyl ester]	+ (+: inhibition comprised between 20 and 50%)	15.8
CC(OCC(c1ccccc1)N1CCN(CC(=O)O)CC1)c1cc(C(F)(F)F)cc(C(F)(F)F)c1 (single isomer, unassigned) [Compound 273]	0 (0: inhibition < 20%)	3.16
CC(OCC(c1ccccc1)N1CCN(CCCCc2nnn[nH]2)CC1)c1cc(C(F)(F)F)cc(C(F)(F)F)c1 (stereo not shown) [Compound 302]	+ (+: inhibition comprised between 20 and 50%)	3.98
O=C(O)CN1CCN([C@@H](COCc2cc(C(F)(F)F)cc(C(F)(F)F)c2)c2ccccc2)CC1 [Compound 231]	0 (0: inhibition < 20%)	79.4
N#CCN1CCN([C@H](COCc2cc(C(F)(F)F)cc(C(F)(F)F)c2)c2ccccc2)CC1 [Compound 291, (S)-{4-[2-(3,5-Bis-trifluoromethyl-benzyloxy)-1-phenyl-ethyl]-piperazin-1-yl}-acetonitrile]	0 (0: inhibition < 20%)	25.1
O=C(O)C1CCC(N2CCN(C(COCc3cc(C(F)(F)F)cc(C(F)(F)F)c3)c3ccccc3)CC2)CC1 (stereo not drawn) [Compound 313, cis- or trans-4-{4-[2-(3,5-Bis-trifluoromethyl-benzyloxy)-1-phenyl-ethyl]-piperazin-1-yl}-cyclohexanecarboxylic acid]	0 (0: inhibition < 20%)	15.8
CNC(=O)CN1CCN(C(COCc2cc(C(F)(F)F)cc(C(F)(F)F)c2)c2ccccc2)CC1 (racemic) [Compound 292, 2-{4-[2-(3,5-Bis-trifluoromethyl-benzyloxy)-1-phenyl-ethyl]-piperazin-1-yl}-N-methyl-acetamide]	+ (+: inhibition comprised between 20 and 50%)	15.8
O=C(O)CCCCCN1CCN(C(COCc2cc(C(F)(F)F)cc(C(F)(F)F)c2)c2ccccc2)CC1 (racemic) [Compound 234, 6-{4-[2-(3,5-Bis-trifluoromethyl-benzyloxy)-1-phenyl-ethyl]-piperazin-1-yl}-hexanoic acid]	0 (0: inhibition < 20%)	15.8
O=C(O)c1ccccc1CN1CCN(C(COCc2cc(C(F)(F)F)cc(C(F)(F)F)c2)c2ccccc2)CC1 (racemic) [Compound 241]	+ (+: inhibition comprised between 20 and 50%)	7.94
N#Cc1ccc(C(COCc2cc(C(F)(F)F)cc(C(F)(F)F)c2)N2CCN(CC(=O)O)CC2)cc1 (stereo not shown) [Compound 320, {4-[2-(3,5-Bis-trifluoromethyl-benzyloxy)-1-(4-cyano-phenyl)-ethyl]-piperazin-1-yl}-acetic acid]	0 (0: inhibition < 20%)	
O=C(O)C(c1ccccc1)N1CCN([C@H](COCc2cc(C(F)(F)F)cc(C(F)(F)F)c2)c2ccccc2)CC1 (mixture of isomers) [Compound 244]	−+ (+: inhibition comprised between 20 and 50%)	39.8
O=C(O)CN1CCN(C(COCc2cc(C(F)(F)F)cc(C(F)(F)F)c2)c2ccc(Br)cc2)CC1 (racemic) [Compound 250]	+ (+: inhibition comprised between 20 and 50%)	79.4
C[C@@H](OC[C@@H](c1ccccc1)N1CCN(CC(=O)O)CC1)c1cc(C(F)(F)F)cc(C(F)(F)F)c1 [Compound 277]	0 (0: inhibition < 20%)	10
